Among the data in patent US10577363B2, “Substituted piperidine compounds” (EPIZYME, INC., priority 2014, dated 2020) are IC50 values, retold here.

Experiment [1] addresses T1, SMYD3 (Homo sapiens (Human), UniProt Q9H7B4). As to the kind of experiment: SMYD3 biochemical assay (SPA, 3H-SAM methylation of MEKK2 protein substrate). The following applies: read-out: SMYD3 Biochem IC50*. The procedure, abridged:
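SPA methyltransferase format: tag-cleaved human SMYD3, insect-cell GST-MEKK2 protein substrate, 3H-SAM donor, 30 min RT enzyme–compound preincubation, 100 uM cold SAM quench.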

Experiment [2] addresses T1, SMYD3. The experiment can be described thus: SMYD3 cell assay (Trimethyl-MEKK2 In-Cell Western in 293T/17 cells). The class given is cell-based. The following applies: read-out: SMYD3 Cell IC50*. The gist of the method:
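In-Cell Western readout: methanol-fixed cells stained for trimethyl-MEKK2 and flag tag, ratio per well normalized to DMSO and background controls.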

T1 sequence (Q9H7B4 whole entry): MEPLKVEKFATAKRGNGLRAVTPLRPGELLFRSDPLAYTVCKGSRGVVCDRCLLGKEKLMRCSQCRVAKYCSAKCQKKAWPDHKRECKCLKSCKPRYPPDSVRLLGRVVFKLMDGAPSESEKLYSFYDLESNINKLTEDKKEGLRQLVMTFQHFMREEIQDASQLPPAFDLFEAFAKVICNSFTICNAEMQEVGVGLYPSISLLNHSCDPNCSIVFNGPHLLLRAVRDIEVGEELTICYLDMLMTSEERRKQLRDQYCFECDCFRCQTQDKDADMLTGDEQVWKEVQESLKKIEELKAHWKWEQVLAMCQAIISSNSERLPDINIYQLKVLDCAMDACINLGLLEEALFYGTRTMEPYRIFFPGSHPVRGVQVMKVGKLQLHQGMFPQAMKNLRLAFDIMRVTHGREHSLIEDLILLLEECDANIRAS

Turning to `C[C@H]1C[C@@H](NC(=O)c2cc(C3CC3)on2)CCN1S(=O)(=O)N1C[C@H]2CC[C@@H](C1)[C@@H]2N` [compound 932, N-((2S,4S)-1-(((1R,5S,8R)-8-amino-3-azabicyclo[3.2.1]octan-3-yl)sulfonyl)-2-methylpiperidin-4-yl)-5-cyclopropylisoxazole-3-carboxamide], the IC50 on SMYD3 [1] is 0.0387 µM; at SMYD3 [2], 0.351 µM.
Turning to `CN1CC2CC(C1)N2S(=O)(=O)N1[C@@H]2CC[C@H]1C[C@@H](NC(=O)c1cc(C3CC3)on1)C2` [compound 933, 5-cyclopropyl-N-((1R,3r,5S)-8-((3-methyl-3,6-diazabicyclo[3.1.1]heptan-6-yl)sulfonyl)-8-azabicyclo[3.2.1]octan-3-yl)isoxazole-3-carboxamide], the figures for the IC50 at SMYD3 [1] and at SMYD3 [2] were 0.0424 µM and 0.0919 µM, respectively.
On the same counts, the results for `C[C@@H](N)c1ccc(S(=O)(=O)N2[C@@H]3CC[C@H]2C[C@@H](NC(=O)c2cc(C4CC4)on2)C3)cc1` [compound 934, N-((1R,3R,5S)-8-((4-((R)-1-aminoethyl)phenyl)sulfonyl)-8-azabicyclo[3.2.1]octan-3-yl)-5-cyclopropylisoxazole-3-carboxamide] are 0.0424 µM and 0.494 µM.
For `C[C@H]1C[C@@H](NC(=O)c2cc(C3CC3)on2)CCN1S(=O)(=O)N1CCC(N(C)CCN2CCOCC2)CC1` [compound 935, 5-cyclopropyl-N-((2S,4S)-2-methyl-1-((4-(methyl(2-morpholinoethyl)amino)piperidin-1-yl)sulfonyl)piperidin-4-yl)isoxazole-3-carboxamide], the IC50 at SMYD3 [1] was found to be 0.043 µM; at SMYD3 [2], 0.414 µM.
For `CN(CCCN1CCOCC1)C1CCN(S(=O)(=O)N2[C@@H]3CC[C@H]2C[C@@H](NC(=O)c2cc(C4CC4)on2)C3)CC1` [compound 936, 5-cyclopropyl-N-((1R,3r,5S)-8-((4-(methyl(3-morpholinopropyl)amino)piperidin-1-yl)sulfonyl)-8-azabicyclo[3.2.1]octan-3-yl)isoxazole-3-carboxamide], in that order: 0.0438 µM and 0.623 µM.
Consider `CC[C@@H]1CNCCN1S(=O)(=O)N1CC[C@H](NC(=O)c2cc(C3CC3)on2)C[C@@H]1C` [compound 937, 5-cyclopropyl-N-((2S,4S)-1-(((R)-2-ethylpiperazin-1-yl)sulfonyl)-2-methylpiperidin-4-yl)isoxazole-3-carboxamide], for which the values for the IC50 on SMYD3 [1] and on SMYD3 [2] were 0.0439 µM and 0.484 µM, respectively.
On the same counts, the results for `N#Cc1ccc(CNC2CCN(S(=O)(=O)N3[C@@H]4CC[C@H]3C[C@@H](NC(=O)c3cc(C5CC5)on3)C4)CC2)cc1` [compound 938, N-((1R,3r,5S)-8-((4-((4-cyanobenzyl)amino)piperidin-1-yl)sulfonyl)-8-azabicyclo[3.2.1]octan-3-yl)-5-cyclopropylisoxazole-3-carboxamide] are 0.0441 µM and 0.508 µM.
On the same counts, the results for `O=C(N[C@H]1C[C@H]2CC[C@@H](C1)N2S(=O)(=O)N1CCNCC1c1ccccc1)c1cc(C2CC2)on1` (stereo partly drawn) [compound 939, 5-cyclopropyl-N-((1R,3r,5S)-8-((2-phenylpiperazin-1-yl)sulfonyl)-8-azabicyclo[3.2.1]octan-3-yl)isoxazole-3-carboxamide] are 0.0447 µM and 0.361 µM.
Consider `CC1CN(S(=O)(=O)N2[C@@H]3CC[C@H]2C[C@@H](NC(=O)c2cc(C4CC4)on2)C3)C(C)CN1C` (stereo partly drawn) [compound 941, 5-cyclopropyl-N-((1R,3r,5S)-8-((2,4,5-trimethylpiperazin-1-yl)sulfonyl)-8-azabicyclo[3.2.1]octan-3-yl)isoxazole-3-carboxamide], for which the IC50 is 0.0479 µM at SMYD3 [1] and 0.341 µM at SMYD3 [2].
For `O=C(N[C@H]1C[C@H]2CC[C@@H](C1)N2S(=O)(=O)NC1CCN[C@H](Cc2ccccc2)C1)c1cc(C2CC2)on1` (stereo partly drawn) [compound 942, N-((1R,3R,5S)-8-(N-((2R)-2-benzylpiperidin-4-yl)sulfamoyl)-8-azabicyclo[3.2.1]octan-3-yl)-5-cyclopropylisoxazole-3-carboxamide], the IC50 at SMYD3 [1] turned out to be 0.0481 µM; at SMYD3 [2], 0.659 µM.
`C[C@H](NC1CCN(S(=O)(=O)N2[C@@H]3CC[C@H]2C[C@@H](NC(=O)c2cc(C4CC4)on2)C3)CC1)c1ccc(F)cc1` [compound 943, 5-cyclopropyl-N-((1R,3S,5S)-8-((4-(((S)-1-(4-fluorophenyl)ethyl)amino)piperidin-1-yl)sulfonyl)-8-azabicyclo[3.2.1]octan-3-yl)isoxazole-3-carboxamide]: the IC50 was found to be 0.0481 µM on SMYD3 [1] and 0.602 µM at SMYD3 [2].
On the same counts, the results for `C[C@@H](NC1CCN(S(=O)(=O)N2[C@@H]3CC[C@H]2C[C@@H](NC(=O)c2cc(C4CC4)on2)C3)CC1)c1ccc(F)cc1` [compound 944, 5-cyclopropyl-N-((1R,3R,5S)-8-((4-(((R)-1-(4-fluorophenyl)ethyl)amino)piperidin-1-yl)sulfonyl)-8-azabicyclo[3.2.1]octan-3-yl)isoxazole-3-carboxamide] are 0.0489 µM and 0.683 µM.
Take `O=C(N[C@H]1C[C@H]2CC[C@@H](C1)N2S(=O)(=O)N(Cc1ccccc1)C1CCNCC1)c1cc(C2CC2)on1` [compound 945, N-((1R,3r,5S)-8-(N-benzyl-N-(piperidin-4-yl)sulfamoyl)-8-azabicyclo[3.2.1]octan-3-yl)-5-cyclopropylisoxazole-3-carboxamide]: the results for the IC50 on SMYD3 [1] and on SMYD3 [2] were 0.0506 µM and 0.223 µM, respectively.
`O=C(N[C@H]1C[C@H]2CC[C@@H](C1)N2S(=O)(=O)c1ccc(CNCCO)cc1)c1cc(C2CC2)on1` [compound 946, 5-cyclopropyl-N-((1R,3r,5S)-8-((4-(((2-hydroxyethyl)amino)methyl)phenyl)sulfonyl)-8-azabicyclo[3.2.1]octan-3-yl)isoxazole-3-carboxamide]: the IC50 on SMYD3 [1] was 0.051 µM; on SMYD3 [2], 0.332 µM.
On the same counts, the results for `O=C(N[C@H]1C[C@H]2CC[C@@H](C1)N2S(=O)(=O)N1CCC(NCCN2CCOCC2)CC1)c1cc(C2CC2)on1` [compound 947, 5-cyclopropyl-N-((1R,3r,5S)-8-((4-((2-morpholinoethyl)amino)piperidin-1-yl)sulfonyl)-8-azabicyclo[3.2.1]octan-3-yl)isoxazole-3-carboxamide] are 0.0523 µM and 0.338 µM.
Consider `O=C(N[C@H]1C[C@H]2CC[C@@H](C1)N2S(=O)(=O)NC1CCN(Cc2ccccc2)CC1)c1cc(C2CC2)on1` [compound 948, N-((1R,3r,5S)-8-(N-(1-benzylpiperidin-4-yl)sulfamoyl)-8-azabicyclo[3.2.1]octan-3-yl)-5-cyclopropylisoxazole-3-carboxamide], for which the IC50 on SMYD3 [1] was determined as 0.0524 µM; on SMYD3 [2], 0.411 µM.
Regarding `O=C(N[C@H]1CCN(S(=O)(=O)NC2CCNCC2)[C@@H](Cc2ccccc2)C1)c1cc(C2CC2)on1` [compound 949, N-((2S,4S)-2-benzyl-1-(N-(piperidin-4-yl)sulfamoyl)piperidin-4-yl)-5-cyclopropylisoxazole-3-carboxamide], the IC50 came to 0.0527 µM at SMYD3 [1] and 1.51 µM on SMYD3 [2].
On to `CC1CN(C)CCN1S(=O)(=O)N1[C@@H]2CC[C@H]1C[C@@H](NC(=O)c1cc(C3CC3)on1)C2` (stereo partly drawn) [compound 950, 5-cyclopropyl-N-((1R,3r,5S)-8-((2,4-dimethylpiperazin-1-yl)sulfonyl)-8-azabicyclo[3.2.1]octan-3-yl)isoxazole-3-carboxamide], for which the IC50 at SMYD3 [1] was determined as 0.0529 µM; on SMYD3 [2] it was 0.39 µM.
On to `CN(C1CCCNC1)S(=O)(=O)N1[C@@H]2CC[C@H]1C[C@@H](NC(=O)c1cc(C3CC3)on1)C2` (stereo partly drawn) [compound 951, 5-cyclopropyl-N-((1R,3r,5S)-8-(N-methyl-N-(piperidin-3-yl)sulfamoyl)-8-azabicyclo[3.2.1]octan-3-yl)isoxazole-3-carboxamide], for which the IC50 on SMYD3 [1] was found to be 0.0541 µM; on SMYD3 [2], 0.395 µM.
For `CN1CCC[C@H](S(=O)(=O)N2[C@@H]3CC[C@H]2C[C@@H](NC(=O)c2cc(C4CC4)on2)C3)C1` [compound 952, 5-cyclopropyl-N-((1R,3S,5S)-8-(((S)-1-methylpiperidin-3-yl)sulfonyl)-8-azabicyclo[3.2.1]octan-3-yl)isoxazole-3-carboxamide], in that order: 0.0562 µM and 0.281 µM.
As for `O=C(N[C@H]1C[C@H]2CC[C@@H](C1)N2S(=O)(=O)c1ccc(CN2CCCC2)cc1)c1cc(C2CC2)on1` [compound 953, 5-cyclopropyl-N-((1R,3r,5S)-8-((4-(pyrrolidin-1-ylmethyl)phenyl)sulfonyl)-8-azabicyclo[3.2.1]octan-3-yl)isoxazole-3-carboxamide], the IC50 at SMYD3 [1] worked out at 0.057 µM; at SMYD3 [2] it was 0.585 µM.
Turning to `CC[C@H]1C[C@@H](NC(=O)c2cc(C3CC3)on2)CCN1S(=O)(=O)CC1CCN(C)CC1` [compound 954, 5-cyclopropyl-N-((2S,4S)-2-ethyl-1-(((1-methylpiperidin-4-yl)methyl)sulfonyl)piperidin-4-yl)isoxazole-3-carboxamide], the results for the IC50 at SMYD3 [1] and at SMYD3 [2] were 0.0579 µM and 0.583 µM, respectively.
As for `COCCN1C2CCC1CN(S(=O)(=O)N1[C@@H]3CC[C@H]1C[C@@H](NC(=O)c1cc(C4CC4)on1)C3)C2` [compound 955, 5-cyclopropyl-N-((1R,3r,5S)-8-((8-(2-methoxyethyl)-3,8-diazabicyclo[3.2.1]octan-3-yl)sulfonyl)-8-azabicyclo[3.2.1]octan-3-yl)isoxazole-3-carboxamide], the values for the IC50 at SMYD3 [1] and at SMYD3 [2] were 0.0592 µM and 0.373 µM, respectively.
On the same counts, the results for `O=C(N[C@H]1C[C@H]2CC[C@@H](C1)N2S(=O)(=O)C[C@H]1CCCN1)c1cc(C2CC2)on1` [compound 956, 5-cyclopropyl-N-((1R,3R,5S)-8-((((R)-pyrrolidin-2-yl)methyl)sulfonyl)-8-azabicyclo[3.2.1]octan-3-yl)isoxazole-3-carboxamide] are 0.0596 µM and 0.733 µM.

As a reminder, the IC50 is the concentration that inhibits the measured activity by half.
